Assays:
Type in all cases: biochemical
[1] = molecular target: T1, recombinant alpha-glucosidase I (human full-length glucosidase I, Glu 1) (Homo sapiens, UniProt Q13724); assay: Alpha-glucosidase I assay (Amplex Red glucose detection, synthetic trisaccharide substrate); details: Glucosidase 1; read-out: Glu 1 IC50
T1 construct: 6-His (C); made in house; host or cells: HEK-293T cells transduced with BacMam virus (virus raised in Sf9)
T1 sequence (Q13724 1-837): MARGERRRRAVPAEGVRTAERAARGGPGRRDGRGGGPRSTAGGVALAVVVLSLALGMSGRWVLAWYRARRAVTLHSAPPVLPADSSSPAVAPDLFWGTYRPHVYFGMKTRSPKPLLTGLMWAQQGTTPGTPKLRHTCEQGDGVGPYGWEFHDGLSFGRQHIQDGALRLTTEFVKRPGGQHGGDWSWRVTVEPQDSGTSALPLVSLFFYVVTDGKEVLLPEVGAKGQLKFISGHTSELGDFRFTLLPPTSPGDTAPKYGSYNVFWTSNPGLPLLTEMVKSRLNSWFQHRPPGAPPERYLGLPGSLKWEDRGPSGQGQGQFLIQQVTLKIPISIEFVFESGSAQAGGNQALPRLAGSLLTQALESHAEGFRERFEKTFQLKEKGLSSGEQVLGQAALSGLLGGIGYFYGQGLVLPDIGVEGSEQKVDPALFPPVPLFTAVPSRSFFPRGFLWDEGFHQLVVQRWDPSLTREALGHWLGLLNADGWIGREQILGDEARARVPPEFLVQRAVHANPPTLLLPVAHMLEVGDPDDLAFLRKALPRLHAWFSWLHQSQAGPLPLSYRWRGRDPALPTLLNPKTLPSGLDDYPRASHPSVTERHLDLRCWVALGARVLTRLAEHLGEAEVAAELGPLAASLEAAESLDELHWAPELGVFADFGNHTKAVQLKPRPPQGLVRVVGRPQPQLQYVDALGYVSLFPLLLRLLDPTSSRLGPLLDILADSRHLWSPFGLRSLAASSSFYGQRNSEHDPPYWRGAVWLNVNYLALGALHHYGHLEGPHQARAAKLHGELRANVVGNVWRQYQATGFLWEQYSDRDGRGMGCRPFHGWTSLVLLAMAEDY
Description: Preparation of Human Full-length Glucosidase I: The amino acid sequence for human full-length glucosidase I was obtained from UniProt (Q13724). […] The entry vector was cloned into Kemp Proteins' BacMam Destination vector and transformed into chemically competent DH10Bac E. coli cells to produce recombinant glucosidase I bacmids. Bacmid isolates were obtained following two rounds of blue-white screening and they were transfected into Sf9 cells cultivated in serum-free medium (Thermo Fisher Scientific). Four days post-transfection the culture supernatants containing virus were harvested and filter sterilized. […] A multiplicity of infection (MOI, ratio of virus to cells) of 4 was selected. Soluble glucosidase I was detected by anti-His western blots in the soluble cell extract following extraction with 1% V/V NP40 for 30 minutes at 0° C. Productions and purifications of glucosidase I were carried out at scales ranging from 1-liter to 10-liters. […] In another example production at the 10-liter scale was performed in stirred-tank bioreactors at 27° C. and 80 rpm with dissolved oxygen level at 50% of oxygen in air and pH between 7.0 and 7.2. Cells were transduced at MOI of 4 and the cell pellet was harvested at 48 hours post-transduction using centrifugation.
The pellet from a 10-liter culture was lysed by resuspending the pellet into 1-liter of 50 mM NaH2PO4—H2O+300 mM NaCl+10 mM Imidazole+1 mM PMSF+1% V/V NP40 pH 8. The suspension was incubated on ice for 30 minutes and clarified at 500×g and 4° C. The supernatant was collected and clarified at 20,000×g for 30 minutes at 4° C. and the supernatant was collected and filtered through a 0.2 micron filter. […] The column was washed with 20 column volumes (CV) of 50 mM NaH2PO4-H2O+300 mM NaCl+10 mM Imidazole pH 8 and eluted using a linear gradient of 0-60% 50 mM NaH2PO4-H2O+300 mM NaCl+500 mM Imidazole pH 8 over 90 minutes. at 5 mL per minute. Fractions (25 mL) were collected and analyzed by SDS PAGE and Western Blot (reducing anti-His). Fractions containing purified glucosidase I were pooled and dialyzed into storage buffer (20 mM Tris+300 mM NaCl+50 mM L-arginine+10 mM EDTA+0.01% V/V Tween 80 pH 7.5). The final material was filter sterilized and stored at 4° C. and the working dilution confirmed by a use-test in the indicated assay conditions prior to use.
Alpha-glucosidase I Assay: The assay was performed by incubating recombinant alpha-glucosidase I enzyme with multiple dilutions of test compounds for 60 minutes at 37° C. A synthetic trisaccharide substrate analog was then introduced to the mixture for 90 minutes at 37° C. The reaction was then stopped with 1.5M Tris (pH 8). In the absence of inhibition, the terminal glucose of the substrate was hydrolyzed by the enzyme. The D-glucose product was detected using Amplex Red Glucose/Glucose Oxidase Assay Kit (Invitrogen) following the manufacturer's directions where glucose oxidase reacts with D-glucose to form D-gluconolactone and H2O2 which then reacts with the Amplex Red reagent to generate a red-fluorescent oxidation product (560 nm, excitation; 590 nm, emission). […] Percent inhibition is plotted as a function of concentration for each compound, compared to control reactions. The IC50 was determined using a 4-PL curve fit and serves as a measure of relative inhibitory activity of each test compound (see Table 3).

[2] = molecular target: T2, recombinant alpha-glucosidase II (murine full-length glucosidase II, alpha and beta subunits, Glu 2) (Mus musculus, UniProt Q8BHN3); assay: Alpha-glucosidase II assay (4-methylumbelliferyl-alpha-D-pyranoside substrate, fluorescence); details: Glucosidase 2; read-out: Glu2 IC50
T2 construct: made in house; host or cells: HEK-293T cells transduced with BacMam viruses (75% alpha, 25% beta); protein harvested from culture supernatant

[3] = molecular target: recombinant human GAA (acid alpha-glucosidase) (Homo sapiens, UniProt P10253); assay: Acid alpha-glucosidase (GAA) assay (4-methylumbelliferyl-alpha-D-pyranoside substrate, fluorescence)
Protocol: Acid alpha-glucosidase (GAA): To analyze inhibitory effects of a test compound, commercially available recombinant human GAA was incubated with multiple dilutions of test compound for 60 minutes at 37° C. 4-methylumbelliferyl-alpha-D-pyranoside was then introduced to the mixture as the substrate. 1,4-methyllumbelliferone is generated, and after an incubation for 20 minutes at 37° C., the reaction was stopped with the stop solution (0.5M glycine 0.3M NaOH pH 10). 1,4-methyllumbelliferone is detected by fluorescence (excitation at 365 nm, emission at 440 nm). Relative fluorescence compared to untreated enzymatic activity and test compound concentration is plotted as a function of percent inhibition. The IC50 is determined using a 4-PL curve fit as the measure of relative inhibitory activity of each test compound (see Table 3).

[4] = molecular target: rat maltase (partially purified alpha-glucosidase from intestinal rat powder); assay: Intestinal alpha-glucosidase assay, maltose substrate (Glucose GO Kit)
Protocol: (§1) Intestinal alpha-glucosidases (rat maltase and sucrase): Intestinal alpha-glucosidases act upon 1,4-alpha-glucoside bonds, breaking down disaccharides to glucose. To perform this assay, partially purified alpha-glucosidase from intestinal rat powder was incubated for 60 minutes at 37° C. with multiple dilutions of test compounds. Maltose or Sucrose respectively was then introduced as substrate to the mixture and incubated for 30 minutes at 37° C. The reaction was stopped by a 5-minute incubation at 90° C. and the resultant glucose production is detected using Sigma's Glucose GO Kit. Percent inhibition was then plotted as a function of concentration for each test compound. The IC50 was determined using a 4-PL curve fit and serves as the measure of relative inhibition of each test compound (see Table 3).

[5] = molecular target: rat sucrase (partially purified alpha-glucosidase from intestinal rat powder) (Rattus norvegicus, UniProt P23739); assay: Intestinal alpha-glucosidase assay, sucrose substrate (Glucose GO Kit)
Protocol: as §1

T2 sequence (O08795 15-521): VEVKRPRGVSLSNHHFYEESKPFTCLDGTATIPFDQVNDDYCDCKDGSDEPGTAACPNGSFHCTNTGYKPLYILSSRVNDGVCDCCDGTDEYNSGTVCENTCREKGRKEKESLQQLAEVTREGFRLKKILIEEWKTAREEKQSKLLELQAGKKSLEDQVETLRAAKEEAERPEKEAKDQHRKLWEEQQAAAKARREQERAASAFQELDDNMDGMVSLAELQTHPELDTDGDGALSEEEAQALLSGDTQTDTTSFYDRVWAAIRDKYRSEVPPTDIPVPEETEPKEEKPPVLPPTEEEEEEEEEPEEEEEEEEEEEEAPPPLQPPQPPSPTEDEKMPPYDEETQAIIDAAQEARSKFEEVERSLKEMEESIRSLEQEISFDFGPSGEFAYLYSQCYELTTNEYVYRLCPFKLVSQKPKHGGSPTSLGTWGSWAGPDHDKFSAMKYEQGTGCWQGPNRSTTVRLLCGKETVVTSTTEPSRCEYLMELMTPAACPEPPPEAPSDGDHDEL
T2 sequence (Q8BHN3 33-944): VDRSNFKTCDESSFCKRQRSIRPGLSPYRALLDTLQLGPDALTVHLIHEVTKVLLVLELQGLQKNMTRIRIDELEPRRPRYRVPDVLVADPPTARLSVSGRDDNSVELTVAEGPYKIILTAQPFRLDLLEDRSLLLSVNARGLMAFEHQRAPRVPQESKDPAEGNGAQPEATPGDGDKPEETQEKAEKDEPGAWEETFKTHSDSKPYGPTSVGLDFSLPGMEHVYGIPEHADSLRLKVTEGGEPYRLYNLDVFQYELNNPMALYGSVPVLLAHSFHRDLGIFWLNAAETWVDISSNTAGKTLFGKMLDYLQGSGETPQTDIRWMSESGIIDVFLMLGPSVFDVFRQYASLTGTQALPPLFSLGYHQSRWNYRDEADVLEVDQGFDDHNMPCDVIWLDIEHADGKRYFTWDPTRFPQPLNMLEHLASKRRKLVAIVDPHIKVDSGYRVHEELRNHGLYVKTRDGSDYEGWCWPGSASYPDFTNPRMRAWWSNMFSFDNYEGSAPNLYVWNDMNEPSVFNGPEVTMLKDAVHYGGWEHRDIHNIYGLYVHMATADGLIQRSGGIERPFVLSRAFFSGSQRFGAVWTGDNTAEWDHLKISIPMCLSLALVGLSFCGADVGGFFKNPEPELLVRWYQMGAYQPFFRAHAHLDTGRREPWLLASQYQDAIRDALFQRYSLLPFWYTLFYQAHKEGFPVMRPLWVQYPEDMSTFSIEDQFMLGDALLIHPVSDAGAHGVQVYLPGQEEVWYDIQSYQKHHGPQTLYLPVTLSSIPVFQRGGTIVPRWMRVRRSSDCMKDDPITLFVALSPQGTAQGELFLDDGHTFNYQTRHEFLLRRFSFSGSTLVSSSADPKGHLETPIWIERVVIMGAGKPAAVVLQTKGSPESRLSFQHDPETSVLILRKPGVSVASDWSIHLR
Chain of rat sucrase (partially purified alpha-glucosidase from intestinal rat powder) (P23739 whole entry): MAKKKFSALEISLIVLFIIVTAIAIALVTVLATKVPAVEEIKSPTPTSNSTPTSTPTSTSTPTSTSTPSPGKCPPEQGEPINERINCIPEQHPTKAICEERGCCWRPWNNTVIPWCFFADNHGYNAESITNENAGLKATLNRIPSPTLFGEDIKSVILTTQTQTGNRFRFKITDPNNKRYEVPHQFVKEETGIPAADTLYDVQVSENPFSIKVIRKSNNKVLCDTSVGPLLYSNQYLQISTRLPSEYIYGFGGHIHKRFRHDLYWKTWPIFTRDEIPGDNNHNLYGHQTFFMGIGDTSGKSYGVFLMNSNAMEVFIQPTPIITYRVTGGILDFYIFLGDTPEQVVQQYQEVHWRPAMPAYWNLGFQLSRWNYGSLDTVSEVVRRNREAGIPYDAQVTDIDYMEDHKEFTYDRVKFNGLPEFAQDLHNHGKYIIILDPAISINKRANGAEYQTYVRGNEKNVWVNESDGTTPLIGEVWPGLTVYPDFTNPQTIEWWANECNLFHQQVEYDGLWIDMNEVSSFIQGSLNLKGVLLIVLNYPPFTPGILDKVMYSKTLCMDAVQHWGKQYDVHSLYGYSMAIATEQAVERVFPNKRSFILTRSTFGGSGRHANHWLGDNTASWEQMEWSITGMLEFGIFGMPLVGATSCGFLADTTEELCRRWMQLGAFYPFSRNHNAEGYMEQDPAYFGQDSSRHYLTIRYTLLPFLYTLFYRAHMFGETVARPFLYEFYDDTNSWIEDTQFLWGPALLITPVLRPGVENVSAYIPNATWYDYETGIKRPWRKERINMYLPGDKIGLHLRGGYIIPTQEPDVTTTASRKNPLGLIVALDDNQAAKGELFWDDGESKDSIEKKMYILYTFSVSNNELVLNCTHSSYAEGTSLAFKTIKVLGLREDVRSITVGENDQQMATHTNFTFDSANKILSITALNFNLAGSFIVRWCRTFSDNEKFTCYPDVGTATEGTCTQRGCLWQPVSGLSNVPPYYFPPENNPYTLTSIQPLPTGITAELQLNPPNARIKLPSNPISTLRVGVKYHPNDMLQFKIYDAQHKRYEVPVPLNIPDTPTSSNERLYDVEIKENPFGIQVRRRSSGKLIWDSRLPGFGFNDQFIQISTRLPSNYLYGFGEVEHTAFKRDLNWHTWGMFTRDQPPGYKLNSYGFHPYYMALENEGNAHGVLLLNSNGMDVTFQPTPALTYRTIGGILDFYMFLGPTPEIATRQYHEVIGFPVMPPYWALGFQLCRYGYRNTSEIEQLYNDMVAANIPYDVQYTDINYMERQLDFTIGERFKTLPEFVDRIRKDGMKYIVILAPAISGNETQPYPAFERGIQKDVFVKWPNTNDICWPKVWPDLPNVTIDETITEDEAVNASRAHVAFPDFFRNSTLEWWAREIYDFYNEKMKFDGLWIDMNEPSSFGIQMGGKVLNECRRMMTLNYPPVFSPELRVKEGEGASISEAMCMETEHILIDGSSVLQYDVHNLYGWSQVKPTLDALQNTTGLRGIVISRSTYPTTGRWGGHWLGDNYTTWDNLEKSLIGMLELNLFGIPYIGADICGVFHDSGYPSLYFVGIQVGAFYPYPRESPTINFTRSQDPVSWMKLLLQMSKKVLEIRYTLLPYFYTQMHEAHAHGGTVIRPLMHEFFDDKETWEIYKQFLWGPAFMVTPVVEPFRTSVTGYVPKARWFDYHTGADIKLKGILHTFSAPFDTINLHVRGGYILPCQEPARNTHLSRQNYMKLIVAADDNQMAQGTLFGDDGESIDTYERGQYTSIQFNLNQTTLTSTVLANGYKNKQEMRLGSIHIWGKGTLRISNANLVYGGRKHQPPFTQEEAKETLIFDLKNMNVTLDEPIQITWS

OC[C@@H]1[C@@H](O)[C@H](O)[C@@H](O)CN1Cc1ccc(CNc2ccc(-c3cccnn3)cc2)cc1 [Compound 1095, (2R,3R,4R,5S)-2-(hydroxymethyl)-1-{[4-({[4-(pyridazin-3-yl)phenyl]amino}methyl)phenyl]methyl}piperidine-3,4,5-triol]
IC50 [1]: 12 nM
IC50 [2]: 657 nM
IC50 [3]: 243 nM
IC50 [4]: 11 nM
IC50 [5]: 13 nM

O=[N+]([O-])c1cc(CN2CCCO2)ccc1NCc1ccc(CN2C[C@H](O)[C@@H](O)[C@H](O)[C@H]2CO)cc1 [Compound 1098]
IC50 [1]: 23 nM
IC50 [2]: 83 nM
IC50 [3]: 175 nM
IC50 [4]: 13 nM
IC50 [5]: 40 nM

[N-]=[N+]=Nc1ccc(NCC2COC(CN3C[C@H](O)[C@@H](O)[C@H](O)[C@H]3CO)CO2)c([N+](=O)[O-])c1 (stereo partly drawn) [Compound 1280, (2R,3R,4R,5S)-1-[(5-{[(4-azido-2-nitrophenyl)amino]methyl}-1,4-dioxan-2-yl)methyl]-2-(hydroxymethyl)piperidine-3,4,5-triol]
IC50 [1]: 1460 nM
IC50 [2]: 194 nM

Source: patent US20250197372A1 (priority 2020, published 2025)
